Test results as given in patent US6815556B2, “Compounds having fungicidal activity and processes to make and use same” (Dow AgroSciences LLC, priority 2000, dated 2004).
Where two headings read alike, the source gives them in different places.

Key:
Septoria tritici = assay: Leaf Blotch of Wheat, 1-day protectant whole plant test; format: in vivo; conditions: Zymoseptoria tritici, 24 h, read-out: SEPTTR percent control
Phytophthora infestans = assay: whole plant or invertebrate; format: in vivo; conditions: 24 h, read-out: PHYTIN percent control
Plasmopara viticola = assay: whole plant or invertebrate; format: in vivo; conditions: 24 h, read-out: PLASVI percent control
[1] = 100 ppm spray, wheat plants (variety Monon), one-day protectant test, vs untreated inoculated plants

Row | Structure (SMILES) | pest or weed control at 100 ppm (Septoria tritici; [1]) | pest or weed control at 100 ppm (Phytophthora infestans) | melting point | pest or weed control at 100 ppm (Plasmopara viticola) | pest or weed control at 100 ppm (Septoria tritici)
1 | CC(C)OC(=O)N[C@H](CS(=O)(=O)C(C)c1ccc(Br)cc1)C(C)C (stereo partly drawn) [Compound 1] | < 20% | 90 to 100% | 60 to 70 °C | 90 to 100% | 
2 | CC(C)OC(=O)N[C@H](CS(=O)(=O)C(C)c1ccc(C#N)cc1)C(C)C (stereo partly drawn) [Compound 2] | < 20% | 90 to 100% | 110 to 120 °C | 90 to 100% | 
3 | CC(C)OC(=O)N[C@H](CS(=O)(=O)C(C)c1cccc(F)c1)C(C)C (stereo partly drawn) [Compound 3] |  | 90 to 100% |  | 50 to 89% | 
4 | CC(C)OC(=O)N[C@H](CS(=O)(=O)C(C)c1ccc(OC(F)(F)F)cc1)C(C)C (stereo partly drawn) [Compound 4] | < 20% | 90 to 100% | 50 to 60 °C | 90 to 100% | 
5 | CC(C)OC(=O)N[C@H](CS(=O)(=O)C(C)c1ccc(Cl)c(Cl)c1)C(C)C (stereo partly drawn) [Compound 5] | < 20% | 90 to 100% | 75 to 85 °C | 50 to 89% | 
6 | CC(C)OC(=O)N[C@H](CS(=O)(=O)C(C)c1ccc(-c2ccccc2)cc1)C(C)C (stereo partly drawn) [Compound 6] |  | 90 to 100% |  | 90 to 100% | 
7 | CC(C)OC(=O)N[C@H](CS(=O)(=O)C(C)c1ccc(Br)nc1)C(C)C (stereo partly drawn) [Compound 8] | < 20% | 50 to 89% |  | 50 to 89% | 
8 | CC(C)OC(=O)N[C@H](CS(=O)(=O)C(C)c1ccc(C#N)s1)C(C)C (stereo partly drawn) [Compound 9] |  | 90 to 100% |  | 90 to 100% | 
9 | CC(C)OC(=O)N[C@H](CS(=O)(=O)C(C)c1nc2ccc(Br)cc2s1)C(C)C (stereo partly drawn) [Compound 10] |  | 90 to 100% |  | 90 to 100% | 
10 | C#Cc1ccc(C(C)S(=O)(=O)C[C@@H](NC(=O)OC(C)C)C(C)C)cc1 (stereo partly drawn) [Compound 11] | 50 to 89% | 90 to 100% | 125 to 135 °C | 50 to 89% | 
11 | CON=Cc1ccc(C(C)S(=O)(=O)C[C@@H](NC(=O)OC(C)C)C(C)C)cc1 (stereo partly drawn) [Compound 12] |  | 90 to 100% |  | 90 to 100% | 
12 | CC(C)OC(=O)N[C@H](CS(=O)(=O)C(C)c1ccc([N+](=O)[O-])cc1)C(C)C (stereo partly drawn) [Compound 13] | < 20% | 90 to 100% |  | 90 to 100% | 
13 | COC(=O)c1ccc(C(C)S(=O)(=O)C[C@@H](NC(=O)OC(C)C)C(C)C)cc1 (stereo partly drawn) [Compound 14] |  | 90 to 100% | 140 to 145 °C | 90 to 100% | 
14 | CC(C)OC(=O)N[C@H](CS(=O)(=O)C(C)c1ccc(C=O)cc1)C(C)C (stereo partly drawn) [Compound 15] |  | 90 to 100% | 50 to 60 °C | 90 to 100% | 
15 | CC(C)OC(=O)N[C@H](CS(=O)(=O)C(C)c1ccc2ccccc2c1)C(C)C (stereo partly drawn) [Compound 16] |  | 90 to 100% |  | 50 to 89% | 
16 | CC(C)[C@@H](CS(=O)(=O)C(C)c1ccc(Br)cc1)NC(=O)Oc1ccccc1 (stereo partly drawn) [Compound 17] |  | 90 to 100% | 55 to 65 °C | 90 to 100% | 20 to 49%
17 | CC(C)[C@@H](CS(=O)(=O)C(C)c1ccc(C#N)cc1)NC(=O)Oc1ccc(F)cc1 (stereo partly drawn) [Compound 18] |  | 90 to 100% |  | 90 to 100% | 50 to 89%
18 | Cc1cccc(OC(=O)N[C@H](CS(=O)(=O)C(C)c2ccc(C#N)cc2)C(C)C)c1 (stereo partly drawn) [Compound 19] |  | 90 to 100% |  | 90 to 100% | 
19 | CC(C)[C@@H](CS(=O)(=O)C(C)c1ccc(Br)cc1)NC(=O)OC(C)(C)C (stereo partly drawn) [Compound 20] | 20 to 49% | 90 to 100% |  | 50 to 89% | 
20 | C#CCCOC(=O)N[C@H](CS(=O)(=O)C(C)c1ccc(Br)cc1)C(C)C (stereo partly drawn) [Compound 21] | 50 to 89% | 90 to 100% |  | 50 to 89% | 
21 | CC(C)OC(=O)N[C@H](CS(=O)(=O)C(Cl)c1ccc(Cl)cc1)C(C)C (stereo partly drawn) [Compound 22, isopropyl 1-({[chloro(4-chlorophenyl)methyl]sulfonyl}methyl)-2-methylpropylcarbamate] | < 20% | 90 to 100% | 140 to 143 °C | 90 to 100% | 
